Results taken from EP4489718B1, “METHOD FOR ENCAPSULATING A HYDROPHOBIC COMPOUND, SUSPENSION OF STRUCTURED LIPID PARTICLES ACCORDING TO THIS METHOD, AND USES OF SAID SUSPENSION” (SEDERMA, priority 2022, dated 2023).
Read-outs that look alike come from different tables or passages of the source.

Assays:
[1] = Stability study on storage (retinol content by HPLC, colour, pH, particle size); type: physicochemical
Procedure: Samples were diluted in isopropanol. […] A calibration curve was performed. For an accelerated stability study, suspension samples according to the invention were stored for 365 days at room temperature (RT), 180 days at 40°C, 90 days at 5°C and 60 days at 50°C. The long-term stability study was evaluated at RT. Samples were analysed for characterization parameters at test times 0, 7, 14, 21, 30, 60, and 90, 180 and 365 days, depending on each storage condition. At each analysis time, a new bottle was opened for the first time. To assess the impact of product handling during stability, an additional bottle of each sample was stored at RT. This same bottle was opened and handled under an air atmosphere at each analysis time (7, 14, 21, 30, 60 and 90 days for all samples for RT) and the results were compared to the cases of the bottles newly opened for each analysis. All samples were handled without direct contact with light and under normal air conditions. No inert gas was used either to fill the bottles or to handle any sample.

[2] = type: physicochemical
Procedure: Aim: to study whether the encapsulated retinol according to the invention supported UV irradiation and to compare with the non-encapsulated free retinol (solubilized in soybean oil).
Protocol: two samples, one containing free retinol and the other encapsulated retinol, were irradiated for 1 hour at about 40cm from the bulb of the solar lamp.
Retinol assay: by HPLC (UV detection at 325nm), the samples having been solubilized and diluted in isopropyl alcohol and the quantification having been carried out using a standard curve ranging from 2 to 150 ppm of retinol.

[3] = physchem; type: physicochemical
From the text: The Franz diffusion cell is the device most used to examine the release profiles of an active ingredient encapsulated in the capsules according to the invention. […] The product to be tested is placed in the upper chamber while the lower chamber collects the recipient fluid which has passed through the membrane. The rate and mechanism of release can be obtained by mathematical modelling. The rate can be calculated using the following first-order equation: […] And the release mechanism can be obtained using the Korsmeyer-Peppas model equation: Mt/M∞ = […] [formula] In which: • t is the release time • Mt is the quantity of released active at t time • M∞ is the total quantity of released active • Mt/M∞ being the fraction of released active at t time; • k is a kinetic constant, a measure of the release rate; and • n the diffusional exponent which gives an indication of the release mechanism of the active and takes on different values depending on the geometry of the release device. […] Selected membrane: […] Eight Franz cells containing the release medium and the membrane were prepared and placed in a temperature-controlled water bath of 32°C. […] The amount added to the membrane was 20% of the saturation concentration to ensure flow conditions. Samples were taken at selected intervals of 0.5 to 76 h with replacement of fresh medium. All samples collected were analysed for retinol content by HPLC on the day of the experiment. […] The mean of the four cells in both cases was plotted against time and used to apply the mathematical models. […] The release mechanism was obtained by the Korsmeyer-Peppas equation.

## CC1=C(/C=C/C(C)=C/C=C/C(C)=C/CO)C(C)(C)CCC1 [Free retinol, retinol]
[1]; storage 5°C, 0 days, suspension: new bottle for each test
  Retinol content in w/w %: 3.11 w/w %
[1]; storage 5°C, 7 days, suspension: new bottle for each test
  Retinol content in w/w %: 3.14 w/w %
[1]; storage 5°C, 14 days
  Retinol content in w/w %: 2.77 w/w %
[1]; storage 5°C, 21 days
  Retinol content in w/w %: 0.42 w/w %
[1]; storage 5°C, 30 days, suspension: new bottle for each test
  Retinol content in w/w %: 0.0 w/w %
[1]; storage 40°C, 0 days, suspension: new bottle for each test
  Retinol content in w/w %: 3.11 w/w %
[1]; storage 40°C, 7 days, suspension: new bottle for each test
  Retinol content in w/w %: 2.79 w/w %
[1]; storage 40°C, 14 days
  Retinol content in w/w %: 0.89 w/w %
[1]; storage 40°C, 21 days
  Retinol content in w/w %: 0.0 w/w %
[1]; storage 40°C, 30 days, suspension: new bottle for each test
  Retinol content in w/w %: 0.0 w/w %
[1]; storage 50°C, 0 days, suspension: new bottle for each test
  Retinol content in w/w %: 3.11 w/w %
[1]; storage 50°C, 7 days, suspension: new bottle for each test
  Retinol content in w/w %: 2.51 w/w %
[1]; storage 50°C, 14 days, suspension: new bottle for each test
  Retinol content in w/w %: 0.10 w/w %
[1]; storage 50°C, 21 days, suspension: new bottle for each test
  Retinol content in w/w %: 0.0 w/w %
[1]; storage 50°C, 30 days, suspension: new bottle for each test
  Retinol content in w/w %: 0.0 w/w %
[1]; storage RT, 0 days, suspension: new bottle for each test
  Retinol content in w/w %: 3.11 w/w %
[1]; storage RT, 7 days, suspension: new bottle for each test
  Retinol content in w/w %: 2.76 w/w %
[1]; storage RT, 14 days, suspension: new bottle for each test
  Retinol content in w/w %: 2.40 w/w %
[1]; storage RT, 21 days, suspension: new bottle for each test
  Retinol content in w/w %: 0.23 w/w %
[1]; storage RT, 30 days, suspension: new bottle for each test
  Retinol content in w/w %: 0.25 w/w %
[2]; After 1h of irradiation, about 40cm from solar lamp
  Actual content of retinol (in weight %): 5.72 +/- 0.07 weight %
[2]; Control (not irradiated)
  Actual content of retinol (in weight %): 10.49 +/- 0.34 weight %
[3]
  retinol degradation peaks in the chromatograms of the release samples: degradation peaks from 10h
[3]; 3% tween 80 in water
  half-life: 2.03 h
[3]; Franz cell, PVDF 0.1 µm membrane, 3% Tween 80 / 97% water, 32°C, first-order model
  release rate: 0.00089 min⁻¹
